Experiments:
[1] = tested on: GL261 glioblastoma in left striatum; test: In vivo labeling of orthotopic GL261 glioblastoma after i.p. injection; parameters: species or system mice; settings: 6 days after implantation, 6 h after injection, probe 10 18 μg, probe 11 5 μg
Description: We used in vitro and in vivo cells from a mouse high grade glioma cell line, GL261[56]. Briefly, ten 2- to 3-month-old female C57BlC mice were stereotactically implanted under deep general anesthesia (isoflurane supplemented with nitrous oxide) with 1 × 10^5 GL261 glioblastoma cells. The cells were stereotactically inoculated through a burr hole by a Hamilton syringe into the left striatum (coordinates: 1 mm anteroposterior and 1 mm lateral from bregma, at a depth of 3 mm). All experimental procedures were conducted in accordance with the European Communities Council Directive of the 24th of November 1986 (86/609 EEC), with the Recommendation 18/06/2007, Dir. 2010/63/UE and with the Italian law for care and use of experimental animals (DL116/92) and were approved by the Italian Ministry of Health (prot. E669C.15) and by the Bioethical Committee of the University of Turin. All animals were housed under a 12-h light-dark cycle in an environmentally controlled room. All experiments were designed to minimize the numbers of animals used and their discomfort. In each experiment, animals with tumors were allocated to two groups and i.p. injected with probe 10 (18 μg) or probe 11 (5 μg). […] Quantitative and phenotypic evaluations were made on the images acquired with a Leica TCS SP5 confocal microscope. […]

ALDH1A2 = molecular target: T1, ALDH1A2 (Homo sapiens, UniProt O94788); test: Enzymatic inhibition assay with acetaldehyde; format: biochemical; settings: up to highest probe concentration
T1 construct: E. coli BL21 (DE3) were transformed with the full-length expression vector of each isoform; His-tag; made in house; host or cells: E. coli BL21 (DE3)
T1 sequence (O94788 1-518): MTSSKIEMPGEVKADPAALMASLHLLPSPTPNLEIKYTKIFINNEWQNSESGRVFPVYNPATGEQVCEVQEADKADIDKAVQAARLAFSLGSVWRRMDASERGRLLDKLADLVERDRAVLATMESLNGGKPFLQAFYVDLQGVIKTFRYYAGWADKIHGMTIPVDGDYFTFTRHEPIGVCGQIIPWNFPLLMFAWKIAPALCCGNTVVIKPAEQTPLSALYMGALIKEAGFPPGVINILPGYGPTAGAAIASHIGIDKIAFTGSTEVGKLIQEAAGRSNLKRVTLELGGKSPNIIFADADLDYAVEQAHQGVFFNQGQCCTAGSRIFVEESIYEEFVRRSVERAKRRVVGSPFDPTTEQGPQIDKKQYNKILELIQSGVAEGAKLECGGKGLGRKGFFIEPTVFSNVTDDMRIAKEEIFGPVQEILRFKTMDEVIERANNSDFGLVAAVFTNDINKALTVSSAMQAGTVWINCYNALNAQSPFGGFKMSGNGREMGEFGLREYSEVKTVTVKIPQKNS
Procedure: (§1) Initially, the inhibitory activities of our fluorescent probes were screened at a fixed concentration of 50 μM using a Tecan Sunrise 96 Multiplate Reader with Greiner Bio-One 96-UV-Transparent Microplates. The analysis was performed in triplicate in a total volume of 100 μl per well containing 20 mM Tris HCl pH 8.0, 1 mM β-mercaptoethanol, 150 mM KCl, 500 μM NAD^+, […], 2.8 μM hALDH1A and 20 mM acetaldehyde. Afterwards, the inhibitory potency of the fluorescent probes was further investigated, evaluating the IC50 parameter. The enzymatic inhibition assays were performed in triplicate in a total volume of 100 μl per well containing 20 mM Tris HCl pH 8.0, 1 mM β-mercaptoethanol, 150 mM KCl, 500 μM NAD^+, 2.8 μM hALDH1A and 20 mM acetaldehyde in the presence of different probe concentrations, from 200 μM to 1.5625 μM. The DMSO final concentration allowed was up to 15%. Only for ALDH1A3 in complex with Probe 10, the Ki affinity parameter was calculated by performing the analysis in triplicate in a total volume of 100 μl per well containing 20 mM Tris HCl pH 8.0, 1 mM β-mercaptoethanol, 150 mM KCl, 500 μM NAD^+ and 2.8 μM ALDH1As. Due to chemical nature of Probe 10 and Probe 11, we set up the enzymatic assay assuming a competitive inhibition using different compounds concentration, from 200 μM to 1 μM, and different acetaldehyde concentrations, from 20 mM to 2.5 mM. Each reaction mix was preincubated for 10 min at 25 °C before the analysis. The catalytic activity was measured by monitoring the absorbance at 340 nm (εNADH = 6220 M^−^1 cm^−1) for 30 min at 25 °C and the inhibitory parameters were calculated by processing the raw data on SigmaPlot[53].

ALDH1A1 = molecular target: T2, ALDH1A1 (Homo sapiens, UniProt P00352); test: Enzymatic inhibition assay with acetaldehyde; format: biochemical; settings: up to highest probe concentration
T2 construct: E. coli BL21 (DE3) were transformed with the full-length expression vector of each isoform; His-tag; made in house; host or cells: E. coli BL21 (DE3)
T2 sequence (P00352 1-501): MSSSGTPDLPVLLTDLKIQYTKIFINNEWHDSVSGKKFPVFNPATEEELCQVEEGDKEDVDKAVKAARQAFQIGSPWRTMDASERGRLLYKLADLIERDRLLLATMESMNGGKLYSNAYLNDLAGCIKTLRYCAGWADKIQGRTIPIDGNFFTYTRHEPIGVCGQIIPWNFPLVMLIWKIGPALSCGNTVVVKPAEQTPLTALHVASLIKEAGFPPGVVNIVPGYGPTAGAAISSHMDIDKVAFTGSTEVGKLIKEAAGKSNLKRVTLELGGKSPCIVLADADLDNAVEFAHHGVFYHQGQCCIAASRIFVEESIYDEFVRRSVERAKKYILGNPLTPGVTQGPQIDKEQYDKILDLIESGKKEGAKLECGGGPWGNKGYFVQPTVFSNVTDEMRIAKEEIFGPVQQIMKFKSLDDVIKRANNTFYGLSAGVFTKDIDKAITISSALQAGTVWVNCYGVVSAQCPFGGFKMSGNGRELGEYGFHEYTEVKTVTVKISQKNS
Procedure: as §1

Row | SMILES | labelling of the growing tumor in vivo [1] | inhibition of ALDH1A2 (ALDH1A2) | inhibition of ALDH1A1 (ALDH1A1)
1 | COc1cc(/C=C/C(O)=C/C(=O)/C=C/c2ccc(OCc3cn(CCOc4ccc(C=O)cc4)nn3)c(OC)c2)ccc1O [Probe 10] | only Probe 10 was able to selectively label the growing tumor | Neither of the two other isozymes were inhibited | Neither of the two other isozymes were inhibited
2 | CCOC(=O)Cn1cc(COc2ccc(/C=C/C(=O)/C=C(O)/C=C/c3ccc(O)c(OC)c3)cc2OC)nn1 [Probe 11] | does not penetrate to any appreciable level the tumor cells in vivo | no inhibitory effect | no inhibitory effect

Source: paper PMC9437101, “Curcumin-based-fluorescent probes targeting ALDH1A3 as a promising tool for glioblastoma precision surgery and early diagnosis” (Communications Biology, 2022)
